Structures are written as SMILES. Converted amounts (≈) assume the structure as drawn.

Data set [1] deals with subscapular incision wound. Briefly: in vivo application of compositions to subscapular incisions in a rat model (Example 13). Details: species or system Sprague-Dawley rats. An excerpt:
12 Sprague-Dawley rats were placed randomly into 6 different groups, Study Groups 1-6, resulting in 2 animals per study group. Animals were anesthetized and the dorsal subscapular areas were shaved of hair with electric trimmers. Demarcations were made in a gently widening parallel approximately 1 cm subscapular and 2.2 cm in length. The left subscapular incision served as a control and the right subscapular incision served as the treatment site. The subscapular areas were incised with a #15 blade though the skin and subcutaneous panniculus carnosus muscle. The composition mixture corresponding to each group was then instilled into the right subscapular wound and the incision closed with 5-0 nylon interrupted fashion. Additional mixture was applied to the surface of the treatment site incision. Three biopsies were taken of normal skin at the time of incision and prior to any mixture instillation. Each site was then monitored and photographed daily. Wound gross morphology was noted daily. Sutures were removed and biopsies were taken at day 8 of the study (postoperative day #7) and sent to pathology for histology review. Histology was reviewed independently by two dermatopathologists.
A siRNA (MCP-1 inhibitor)

Another data set can be described thus: physchem. On the procedure: Two 4 mg samples of each compound were weighed.
The first sample was used to determine solubility. The sample was mixed with 1 mL of pH 7.4 phosphate buffered saline (PBS) buffer solution to produce a 4 mg/mL solution. The solution was vortexed and filtered to remove undissolved particles. The filtered solution was then diluted in pH 7.4 buffer in triplicate and stored in a refrigerator to reduce hydrolysis. The solutions were allowed to sit at room temperature for 5 minutes and then were analyzed by HPLC.
The second sample was used to prepare a calibration curve in ethanol. Calibrators were made based on expected solubility. After visually inspecting solubility in the buffer, the calibration curve was determined in order to include points above and below the expected concentration. The calibrators were stored in a refrigerator until ready for analysis by HPLC.

The conditions of data set [2]: pH 7.4.
Another data set relates to wound. As to conditions: applied before wound formation or up to 24 hours after; cited from earlier work.

Consider `O=C(O)CCCC(=O)Oc1ccc(C=Cc2cc(OC(=O)CCCC(=O)O)cc(OC(=O)CCCC(=O)O)c2)cc1` [Resveratrol trihemiglutarate, resveratrol trihemiglutarate], for which the “differences in histology between control and treatment site” value in data set [1] (100 μM and 400 μM (either dosage), Groups 2 and 3) is listed as “no differences”. For the same molecule, the “difference in treatment, alone, as compared to natural resveratrol alone” value in data set [1] (Groups 2 and 3) is listed as “no appreciable difference”. In addition, in data set [1] (histology), the “evidence of trichogranuloma in histology specimens” value was “mild”. The Solubility – broadly, the concentration that dissolves in the medium under given conditions – in the data set “physchem” (pH 7.4) amounted to 2060 µg/mL (≈ 3610 µM). For the same molecule, the hydrolysis result in data set [2] is reported as “slightly hydrolyzed”.

In turn, `O=C(O)CCC(=O)Oc1ccc(C=Cc2cc(OC(=O)CCC(=O)O)cc(OC(=O)CCC(=O)O)c2)cc1` [Resveratrol trihemisuccinate, resveratrol trihemisuccinate] came in with a Solubility in “physchem” (pH 7.4) of 291 µg/mL (≈ 551 µM). In data set [2], the hydrolysis entry is given as “quick hydrolysis”.

For `Oc1ccc(/C=C/c2cc(O)cc(O)c2)cc1` [Resveratrol, trans-3,4′,5-trihydroxystilbene], in the data set with wound, the scar result is “attenuated scar” and the time to re-epithelialization entry is on record as “up to 24 hours”. Also, the Solubility in “physchem” (pH 7.4, aqueous buffer, thermodynamic from solid) came out at 4.8 µg/mL (≈ 21 µM).
